Laboratory results as given in patent US20190382358A1, “HETEROCYCLIC COMPOUNDS AS PESTICIDES” (Bayer CropScience Aktiengesellschaft, priority 2016, published 2019).

How the values were obtained:
Assay type in all cases: in vivo
Phaedon cochleariae = Phaedon cochleariae spray test; settings: for mortality at 500 g/ha: Phaedon cochleariae, in Brassica rapa, foliar, 168 h, read-out: mortality in %
Procedure: Phaedon cochleariae—Spray Test
(§1) To produce a suitable preparation of active compound, 1 part by weight of active compound is mixed with the stated amount of solvents and is diluted with water, containing an emulsifier concentration of 1000 ppm, to the desired concentration. Further test concentrations are prepared by dilution with emulsifier containing water.
Chinese cabbage (Brassica pekinensis) leaf disks are sprayed with a preparation of the active ingredient of the desired concentration. Once dry, the leaf disks are infested with mustard beetle larvae (Phaedon cochleariae).
After 7 days mortality in % is determined. 100% means all beetle larvae have been killed and 0% means none of the beetle larvae have been killed.

Nezara viridula [1] = experiment: Nezara viridula spray test (barley plants, mortality); settings: for mortality at 100 g/ha / mortality at 500 g/ha / mortality at 20 g/ha: Nezara viridula, 96 h, read-out: mortality in %
Procedure: (§2) Nezara viridula—Spray Test
To produce a suitable preparation of active compound, 1 part by weight of active compound is mixed with the stated amount of solvent, and the concentrate is diluted with water, containing an emulsifier concentration of 1000 ppm, to the desired concentration Ammonium salt and/or penetration enhancer in a dosage of 1000 ppm are added to the desired concentration if necessary.
Barley plants (Hordeum vulgare) infested with larvae of the southern green stink bug (Nezara viridula) are sprayed with a test solution containing the desired concentration of the active ingredient.
After 4 days, mortality in % is determined. 100% means all the stink bugs have been killed; 0% means none of the stink bugs have been killed.

Nezara viridula [2] = experiment: Nezara viridula spray test (cotton plants, feeding control); settings: 100 ppm, after 3 days, larvae
Procedure: as §2
(§3) To produce a suitable preparation of active compound, 1 part by weight of active compound is mixed with the stated amount of solvent and is diluted with water to the desired concentration. Further test concentrations are prepared by dilution with water Ammonium salt and/or penetration enhancer (rapeseed oil methyl esters) in a dosage of 1000 ppm are added to the desired concentration if necessary.
Cotton plants (Gossypium hirsutum) are treated by being sprayed with the preparation of the active compound of the desired concentration and are infested with 10 larvae per plant of the green plant bug (Nezara viridula).
(§4) After 3 days feeding control in % is determined. 100% means there is no feeding damage visible and 0% means the plant damage corresponds to that of the untreated control plants.

Meloidogyne incognita = Meloidogyne incognita test; settings: 20 ppm; after 14 days; salad seedlings, eggs and larvae
Procedure: Meloidogyne incognita—Test
To produce a suitable preparation of active compound, 1 part by weight of active compound is mixed with the stated amount of solvent, and the concentrate is diluted with water to the desired concentration.
Vessels are filled with sand, a solution of the active ingredient, a suspension containing eggs and larvae of the southern root-knot nematode (Meloidogyne incognita) and salad seeds. The salad seeds germinate and the seedlings grow. Galls develop in the roots.
After 14 days the nematicidal activity is determined on the basis of the percentage of gall formation. 100% means no galls were found and 0% means the number of galls found on the roots of the treated plants was equal to that in untreated control plants.

Diabrotica balteata = Diabrotica balteata spray test; settings: 160 μg/well; after 7 days; wheat seeds, larvae of banded cucumber beetle
Procedure: Diabrotica balteata-Spray Test
as §1, with “solvent,” for “solvents”, “and the concentrate” for “and”
Soaked wheat seeds (Triticum aestivum) are placed in a multiple well plate filled with agar and some water and are incubated for 1 day to germinate (5 seeds per well). The germinated wheat seeds are sprayed with a test solution containing the desired concentration of the active ingredient. Afterwards each unit is infected with 10-20 larvae of the banded cucumber beetle (Diabrotica balteata).
After 7 days efficacy in % is determined. 100% means all the seedlings have grown up like in the untreated, uninfected control; 0% means none of the seedlings have grown.

Spodoptera frugiperda = Spodoptera frugiperda spray test; settings: 168 h, after 7 days, maize leaf sections, larvae
Procedure: Spodoptera frugiperda—Spray Test
as §1
Maize (Zea mays) leaf sections are sprayed with a preparation of the active ingredient of the desired concentration. Once dry, the leaf sections are infested with fall armyworm larvae (Spodoptera frugiperda).
After 7 days mortality in % is determined. 100% means all caterpillars have been killed and 0% means none of the caterpillars have been killed.

Tetranychus urticae = Tetranychus urticae spray test OP-resistant; settings: foliar, 144 h, after 6 days, French bean leaf disks
Procedure: Tetranychus urticae—Spray Test OP-Resistant
as §1
French bean (Phaseolus vulgaris) leaf disks infected with all instars of the two spotted spidermite (Tetranychus urticae), are sprayed with a preparation of the active ingredient of the desired concentration.
After 6 days mortality in % is determined. 100% means all spider mites have been killed and 0% means none of the spider mites have been killed.

Nilaparvata lugens = Nilaparvata lugens spray test; settings: 96 h, after 4 days, rice plants, larvae
Procedure: Nilaparvata lugens—Spray Test
To produce a suitable preparation of active compound, 1 part by weight of active compound is mixed with the stated amount of solvents and is diluted with water, containing an emulsifier concentration of 1000 ppm, to the desired concentration. Further test concentrations are prepared by dilution with emulsifier containing water. Ammonium salt and/or penetration enhancer in a dosage of 1000 ppm are added to the desired concentration if necessary.
Rice plants (Oryza sativa) are treated by being sprayed with the desired concentration of the active compound and are infested with larvae of the brown planthopper (Nilaparvata lugens).
After 4 days mortality in % is determined. 100% means all planthoppers have been killed and 0% means none of the planthoppers have been killed.

Euschistus heros = Euschistus heros spray test (feeding control); settings: 100 ppm; after 3 days; kidney bean plants, larvae
Procedure: Euschistus heros—Spray Test
as §3
Kidney bean plants (Phaseolus vulgaris) are treated by being sprayed with the preparation of the active compound of the desired concentration and are infested with 10 larvae per plant of the brown stink bug (Euschistus heros).
as §4

SMILES | mortality at 500 g/ha (Phaedon cochleariae) [%] | mortality at 100 g/ha (Nezara viridula [1]) [%] | mortality at 500 g/ha (Nezara viridula [1]) [%] | nematicidal activity (% reduction of galls vs untreated control) (Meloidogyne incognita) [%] | efficacy in % (Diabrotica balteata) [%] | also measured
O=C(Nc1nc(-c2c(F)ccc(C(F)(F)F)c2F)ns1)c1ccccc1C(F)(F)F [Compound I-1-3, N-{3-[2,6-difluoro-3-(trifluoromethyl)phenyl]-1,2,4-thiadiazol-5-yl}-2-(trifluoromethyl)benzamide] | 100 | 100 | 100 |  |  | 
O=C(Nc1nc(-c2c(F)ccc(F)c2F)ns1)c1cccnc1C(F)F [Compound I-1-27] |  |  |  |  |  | feeding control in % (Nezara viridula [2]): 100%
O=C(Nc1nc(-c2c(F)c(F)cc(F)c2F)ns1)c1nccnc1C(F)(F)F [Compound I-1-35] |  |  |  | 90 |  | 
O=C(Nc1nc(-c2c(F)c(F)cc(F)c2F)ns1)c1ccccc1C(F)(F)F [Compound I-1-34] |  |  |  |  | 100 | 
O=C(Nc1nc(-c2c(F)ccc(F)c2F)ns1)c1cccnc1C(F)(F)F [Compound I-1-24] |  |  |  | 90 | 100 | 
O=C(Nc1nc(-c2c(F)ccc(C(F)(F)F)c2F)ns1)c1cccnc1C(F)(F)F [Compound I-1-2, N-{3-[2,6-difluoro-3-(trifluoromethyl)phenyl]-1,2,4-thiadiazol-5-yl}-2-(trifluoromethyl)nicotinamide] | 100 | 100 | 100 | 90 |  | mortality at 500 g/ha (Spodoptera frugiperda): ≥ 83%; mortality at 500 g/ha (Tetranychus urticae): 90%; mortality at 20 g/ha (Nezara viridula [1]): 100%; mortality at 500 g/ha (Nilaparvata lugens): ≥ 90%; feeding control in % (Euschistus heros): 85%
O=C(Nc1nc(-c2cc(Cl)cc(F)c2F)ns1)c1c(F)cccc1F [Compound I-1-46] |  |  |  |  |  | mortality in % (Phaedon cochleariae; 500 g/ha, after 7 days, Chinese cabbage leaf disks, larvae): 83%
O=C(Nc1nc(-c2c(F)ccc(Br)c2F)ns1)c1cccnc1C(F)(F)F [Compound I-1-51, N-[3-(3-bromo-2,6-difluorophenyl)-1,2,4-thiadiazol-5-yl]-2-(trifluoromethyl)nicotinamide] | 100 | 100 | 100 |  | 100 | mortality at 500 g/ha (Spodoptera frugiperda): ≥ 83%; mortality at 500 g/ha (Tetranychus urticae): 90%; mortality at 20 g/ha (Nezara viridula [1]): 100%; feeding control in % (Nezara viridula [2]): 100%
O=C(Nc1nc(-c2c(F)cc(C(F)(F)F)cc2F)ns1)c1cccnc1C(F)(F)F [Compound I-1-1] | 100 |  |  |  |  | mortality at 500 g/ha (Tetranychus urticae): 90%
O=C(Nc1nc(-c2c(F)c(F)cc(F)c2F)ns1)c1cccnc1C(F)(F)F [Compound I-1-33] |  |  |  | 90 | 100 | feeding control in % (Euschistus heros): 100%; feeding control in % (Nezara viridula [2]): 100%
O=C(Nc1nc(-c2c(F)ccc(F)c2F)ns1)c1ccccc1Cl [Compound I-1-30] |  |  |  | 90 | 100 | 
O=C(Nc1nc(-c2cc(F)cc(F)c2F)ns1)c1ccccc1Cl [Compound I-1-21] |  |  |  |  |  | mortality in % (Nezara viridula [1]; 500 g/ha, after 4 days, barley plants, larvae): 80%
Cc1ccc(F)c(-c2nsc(NC(=O)c3cccnc3C(F)(F)F)n2)c1F [Compound I-1-52, N-[3-(2,6-difluoro-3-methylphenyl)-1,2,4-thiadiazol-5-yl]-2-(trifluoromethyl)nicotinamide] | 100 | 100 | 100 |  |  | 
O=C(Nc1nc(-c2c(F)ccc(Cl)c2F)ns1)c1cccnc1C(F)(F)F [Compound I-1-6, N-[3-(3-chloro-2,6-difluorophenyl)-1,2,4-thiadiazol-5-yl]-2-(trifluoromethyl)nicotinamide] | 100 | 100 | 100 |  |  | mortality at 500 g/ha (Spodoptera frugiperda): ≥ 83%; mortality at 500 g/ha (Tetranychus urticae): 90%; mortality at 20 g/ha (Nezara viridula [1]): 100%
